Tests used:
[1] = tested on: human BON carcinoid tumor cells; assay: Cell proliferation assay (total DNA content, Hoechst 33258); type: cell-based; conditions: for effect on BON carcinoid cell growth, measured as DNA content: 10^−8M, drug alone
Protocol: (§1) Human pancreatic carcinoid BON cells were obtained from Dr Townsend (The University of Texas Medical Branch, Galveston, Tex., USA). The cells were cultured in a humidified incubator containing 5% CO2 at 37° C. The culture medium consisted of a 1:1 mixture of Dulbecco's modified Eagle's medium (DMEM) and F12K medium, supplemented with 10% FCS, penicillin (1×105 U/l), fungizone (0.5 mg/l) and 1-glutamine (2 mmol/l). Periodically, cells were confirmed as Mycoplasma-free. Cells were harvested with trypsin EDTA 10% and resuspended in medium. Before plating, cells were counted microscopically using a standard hemocytometer. Trypan Blue staining was used to assess cell viability, which always exceeded 95%. Media and supplements were obtained from GIBCO Bio-cult Europe (Invitrogen, Breda, The Netherlands).
After trypsinization, the cells were plated in 1 ml of medium in 24-well plates at a density of 0.4-2×10^4 cells/well. The plates were then placed in a 37° C., 5% CO2 incubator. Three days later the cell culture medium was replaced with 1 ml/well medium containing 5-aza-2′-deoxycytidine at different concentrations in the dose curve response experiment (0, 10^−5M, 10^−6M, 10^−7M, 10^−8M and 10^−9M) or 5-aza-2′-deoxycytidine (5×10^−8M) with or without the somatostatin analog octreotide (10^−8M) or the dopamine agonist cabergoline (10^−8M). In experiments evaluating the combination of 5-aza-2′-deoxycytidine and octreotide or cabergoline, a pre-treatment with 5-aza-2′-deoxycytidine (5×10^−8M) has been performed for 24 hours.
Plates were further incubated at 37° C. and 5% CO2. After 3 and 6 days of treatment cells were harvested for DNA measurement. Plates for 6 days were refreshed after 3 days and compounds were added again. Quadruplicates of each treatment were performed. Measurement of total DNA-contents, representative for the number of cells, was performed using the bisbenzimide fluorescent dye (Hoechst™ 33258) (Boehring Diagnostics, La Jolla, Calif.), as previously described (Hofland L J, van Koetsveld P M, Lamberts S W. Percoll density gradient centrifugation of rat pituitary tumor cells: a study of functional heterogeneity within and between tumors with respect to growth rates, prolactin production and responsiveness to the somatostatin analog SMS 201-995. Eur J Cancer 1990; 26:37-44.).

[2] = tested on: human BON carcinoid cells; assay: Apoptosis assay (DNA fragmentation, Cell Death Detection ELISA); type: cell-based; conditions: for effect on apoptosis, measured as DNA fragmentation, drug alone: 10^−8M
Protocol: as §1, with “Trypan Blue staining was used to assess cell viability, which always exceeded 95%.” left out
After trypsinization BON cells were plated in 24-well plates at a density of 1.5-2×10^4 cells/well. These plates were placed in a 37° C., 5% CO2 incubator. Three days later the medium was refreshed in the presence and absence (control group) of 5-aza-2′-deoxycytidine at different concentrations in the dose curve response experiment (10^−5M, 10^−6M, 10^−7M, 10^−8M and 10^−9M) or 5-aza-2′-deoxycytidine (5×10^−8M) with or without the somatostatin analog octreotide (10^−8M) or the dopamine agonist cabergoline (10^−8M).
Quadruplicates of each treatment were performed. After an additional incubation of 3 days, apoptosis was assessed using a commercially available ELISA kit (Cell Death Detection ELISAPlus, Roche Diagnostic GmbH, Penzberg, Germany). This assay is based on a quantitative sandwich-enzyme-immunoassay-principle, using mouse monoclonal antibodies directed against DNA and histones, respectively. This allows the specific determination of mono- and oligo-nucleosomes in the cytoplasmatic fraction of cell lysate, typical for apoptosis. The standard protocol supplied by the manufacturer was used. Briefly, the medium was carefully removed by suction, cells were incubated in 100 μl of lysis buffer (provided with the Cell Death Detection ELISAPlus assay). After lysis of the cells the solution was incubated with anti-DNA and anti-histone antibodies in a streptavidin-coated 96-well plate for 2 hours. After washing, the immunocomplex-bound peroxidase was probed with 2,2′-azino-di[3-ethylbenzthiazoline sulfonate] (a chromogenic substrate) for spectrophotometric detection at 405 nm, to quantify the amount of nucleosomes bound to the plate. Relative apoptosis was determined by a ratio of the average absorbance of the treatment wells to the average absorbance of the control wells.

SMILES	inhibition of BON carcinoid cell growth, dose curve ([1]; 3 or 6 day incubation, 10^−9M to 10^−5M, data not shown)	inhibition of BON carcinoid cell growth at low dose ([1]; 5×10^−8M, 6 days, p<0.001 vs control)	IC25 value of the tumor cell growth inhibitory effect ([1]; after 6 days of incubation)	induction of DNA fragmentation ([2]; 5×10^−8M, 3 days, p<0.001 vs control)	induction of DNA fragmentation, dose curve ([2]; 3 day incubation, 10^−9M to 10^−5M, data not shown)	effect of AZA alone on DNA fragmentation (FIG. 3, FIG. 4) ([2]; AZA (5 nM) alone)	EC25 value of the apoptosis inducing effect ([2]; after 3 days of incubation)	effect on BON carcinoid cell growth, measured as DNA content ([1]; 3 or 6 day incubation)	effect on apoptosis, measured as DNA fragmentation, drug alone ([2]; 3 day incubation)
Nc1ncn([C@H]2C[C@H](O)[C@@H](CO)O2)c(=O)n1 [5-aza-2′-deoxycytidine]	time- and dose-dependent manner	significantly inhibited	approximately 5×10^−8 M	approximately 100%	dose-dependent manner	moderate effect	approximately 5×10^−8 M		
C[C@@H](O)[C@@H]1NC(=O)[C@H](CCCCN)NC(=O)[C@@H](Cc2c[nH]c3ccccc23)NC(=O)[C@H](Cc2ccccc2)NC(=O)[C@@H](NC(=O)[C@H](N)Cc2ccccc2)CSSC[C@@H](C(=O)N[C@H](CO)[C@@H](C)O)NC1=O [octreotide]								no statistically significant effect	no statistically significant effect
C=CCN1C[C@H](C(=O)N(CCCN(C)C)C(=O)NCC)C[C@@H]2c3cccc4[nH]cc(c34)C[C@H]21 [cabergoline]								no statistically significant effect	no statistically significant effect

Reference: US20140031288A1, “NOVEL COMPOSITION FOR TUMOR GROWTH CONTROL” (Erasmus University Medical Center, priority 2006, published 2014)
